Results on one molecule are retold here after patent US8309766B2 (Obschestvo S. Organichennoi Otvetstvennostiyu …, priority 2005, dated 2012).

For one assay, the system named is cyclooxygenase. Nature of the assay: In vitro effect on [14C]arachidonic acid metabolism in a cell-free homogenate of murine pulmonary tissue. The settings on record: compound 10^−4 M, 37° C., 30 minutes. The class given is biochemical, CBA mice. The procedure: Studies of arachidonic acid metabolism was carried out on females CBA mice who where fed a standard vivarium fodder. Animals (mice) were sacrificed, lungs were extracted, homogenized in a glass homogenizer manufactured by the firm “Wheaton” (USA) at 4° C. in 10 volumes of 0.05 M Tris-HCl buffer. Aliquots (0.5 ml) of supernatant were incubated in 0.5 μCi [1-C^14]-arachidonic acid [C^14]-AA, “Amersham”, England; specific activity 50-60 μCi/mmole) at 37° C. for 30 minutes. Non-metabolized [αC^14]-AA and products of metabolism thereof were extracted in 20 volumes of chloroform and methanol mixture (1:1) in extraction efficacy not less than 90% assessed using [C^14]-PGF2α. [C^14]-AA and metabolites thereof were separated and identified using TLC (the plates Kieselgel 60 of the “Merck” firm, Germany) using as an organic phase, the system of solvents (ethylacetate, isooctane, acetic acid, water—110:50:20:100) and labeled standards. Densitometry of autoradiochromograms obtained on the X-ray film X-Omat AR (“Kodak”, USA) and HS 11 (“ORWO”, Germany), was performed on the densiscan KS 3 (“Kipp and Zonnen”, Holland). Quantitative analysis of individual eicosanoids was carried out using radiometry of fractions obtained by high-performance liquid chromatography (the HPLC-system of the “Gilson” form, France; the column ZORBAX C8 of the “Du Pont” firm, USA) and by elution of spots on TLC-plates. The tested compounds were administered at concentration 10^−4 M.

The subject of another assay is rat uterine horn's SMP. Briefly: Serotonin-induced contracture of rat uterine horn smooth muscle preparation. Also noted: species or system Wistar rats. To be noted: for Inhibition of contractions of the rat uterine horn's SMP, % / Rate of contractions of the rat uterine horn's SMP during 5 minutes: serotonin 10^−5 M; for Rate of contractions of the rat uterine horn's SMP during 5 minutes: control 9. The procedure:
The model of serotonin-induced soft muscular contracture of an uterine horn [Blattner H. G., Dehnert H. et al. Experiments on isolated smooth muscle preparation. Ed. J. M. Barnden and R. Colson, 1980] was created on females of Wistar rats weighing 300-350 grams. A prepared smooth muscle preparation (SMP) was placed into a thermo-regulated chamber (+37° C.) containing Tirode solution with lowered calcium content in order to prevent spontaneous contractive activity of the smooth muscle preparation. Contraction of the uterine horn was recorded using the mechanotron 6M×2B connected to the polygraph KPS-4; initial load to the object was 0.5-0.7 grams.
Contracture of the SMP was induced by introduction into incubation medium of 0.1 ml serotonin (Sigma) at concentration 10^−5 M. 30-60 seconds post administration of the mediator, a peak contraction amplitude of the uterine horn was recorded. Compound IX was introduced into the chamber at the peak amplitude of contractions or under conditions of incubation (within the same range of concentrations) for 15 minutes.
The effect of compound IX being tested was assessed by a number of contractions and by lowering the amplitude value.

The subject of assay [1] is "acetic contortions" in mice. Nature of the assay: Analgetic activity on the model "acetic contortions". The class given is in vivo, white mongrel mice. To be noted: dose 10 mg/kg (table title). The procedure: The tests were conducted on males of white mongrel mice weighing 22-24 grams. The specific pain response (“contortions”) were elicited by intraperitoneal administration to mice of 0.75% acetic acid solution. The following signs were taken into consideration: the number of seizure contractions of abdominal muscles accompanied by stretching the hind limbs and sagging the back. Analgetic effect was assessed by decrease in the number of contortions in animals in percent to the control for 15 minutes post administration of acetic acid. The technique of the tests is disclosed in Koster R., Anderson M., de Beer B.//Fed. Proc. 1959. V. 18. P. 412. Compounds under testing were administered intraperitoneally (using a probe) at a dose 10 μg/kg 60 minutes prior to injection of the acid. Diclofenac (10 mg/kg) was used as a reference drug. Analgetic effect was calculated according to the formula: […]
wherein Ck is the number of contortions in the control group,
Co is the number of contortions in the test group.

Setting [2] is: added at the peak serotonin-induced contracture.

Each structure is given as a SMILES string.

In the case of `O=C(CCc1ccc(O)cc1)NCCc1ccccc1` [Compound IX, 3-(p-hydroxyphenyl)-propionylphenylethylamine], the Prostanoids with cyclooxygenase (b308 reads these as % cyclooxygenase inhibition) was −33. Moreover, in the assay with cyclooxygenase (change), the 6-keto-PGF1α is given as −30, the “AA (arachidonic acid)” value is “+47”, the PGE2 is listed as −38 and the PGF2α is recorded as −27. The same molecule came in with a TXB2 in the assay with cyclooxygenase (change) of −40. Further, in the assay with rat uterine horn's SMP (setting [2]), the “Inhibition of contractions of the rat uterine horn's SMP, %” value is given as 44.4% and the “Rate of contractions of the rat uterine horn's SMP during 5 minutes” value was found to be 5. In the assay on rat uterine horn's SMP (pre-incubation conditions), the “SMP contracture after the slowed contractions” value is on record as “complete blockade”. In the assay with rat uterine horn's SMP (pre-incubation for 15 minutes), the “Inhibition of contractions of the rat uterine horn's SMP, %” value is 55.6% and the “Rate of contractions of the rat uterine horn's SMP during 5 minutes” value is listed as 4. For the same molecule, the inhibition in vivo at 10 mg/kg in assay [1] (Mus musculus, ip, 0.25 h, read-out: Analgetic effect (%)) came out at 68%. In assay [1] (Mus musculus, ip, 0.25 h, read-out: C, % to the control), the response vs control in vivo at 10 mg/kg stood at 32%. In assay [1] (60 minutes prior to acetic acid), the “C ± m (the number of contortions for 15 minutes)” value worked out at 11.8 ± 2.9.
